Patent US20110257139A1, “TREATMENT OF DIARRHOEA” (ROYAL COLLEGE OF SURGEONS IN IRELAND, priority 2008, published 2011)

What was measured:
T84 cells [1] = assay: Cl^− secretory (Isc) responses of T84 cell monolayers in Ussing chambers; assay type: cell-based; conditions: for Isc (Cl^− secretory) response to carbachol (CCh) / Isc (Cl^− secretory) response to forskolin: T84 monolayers pretreated with 1 μM for 24 hrs; for Isc (Cl^− secretory) response to carbachol (CCh): carbachol 100 μM; for Isc (Cl^− secretory) response to forskolin: forskolin 10 μM
Protocol: Measurements of chloride secretion: Cultured T84 epithelial cells were employed as a model of the colonic epithelium. T84 cells were grown as monolayers on filter supports. When grown in this way T84 cells retain many of the characteristics of native intestinal epithelium and are widely considered as being among the best reductionist models for analysing intestinal epithelial secretory responses. […] After this time they were washed of GW 4064, mounted in Ussing chambers, and voltage-clamped to zero potential difference. Under these conditions, transepithelial ion transport can be measured as changes in short-circuit current (Isc) and such changes in Isc across T84 cells have been established as being wholly due to Cl^− ion secretion. After mounting the cells in Ussing chambers we measured Cl^− secretory responses to both the calcium- and cAMP-dependent agonists, carbachol (100 μM) and forskolin (10 μM), respectively.

T84 cells [2] = assay: Transepithelial conductance of T84 monolayers as a measure of cell viability; assay type: cell-based; conditions: various concentrations for 24 hrs
Protocol: Monolayers were then mounted in Ussing chambers and transepithelial conductance measurements were made as a measure of cell viability (n=4-13). Only at concentrations>10 μM did GW 4064 exert toxic effects on T84 cells. FIG. 5.

Na^+/K^+ ATPase pump = assay: Abundance (western blotting) and surface expression (biotinylation) of Na^+/K^+ ATPase pump in T84 cells; assay type: cell-based; conditions: 5 μM, 24 hrs
Protocol: Western Blotting: T84 monolayers were washed with ice-cold PBS and lysed (1% Nonidet P-40, 150 mmol/L NaCl, 50 mmol/L Tris Base, 1×Complete mini EDTA free protease inhibitor tablet, 0.1 mg/l mL PMSF, 1 mmol/L Na3VO4). Lysates were collected, centrifuged at 15,294×g for 10 minutes at 4° C., the pellet discarded, and the supernatant sonicated with 3×10 second pulses in order to disrupt membrane proteins. Samples were normalized for protein content and 2× gel loading buffer (50 mM Tris HCl, 100 mM DTT, 40% glycerol and 4% SDS) was added. Samples were then heated at 95° C. for 5 min, separated by sodium dodecyl sulphate polyacrylamide gel electrophoresis and transferred to PVDF membranes. Membranes were pre-blocked in 5% blocking buffer (Marvel in PBS) for 60 minutes at room temperature followed by incubation with primary antibody in 5% blocking buffer overnight at 4° C. […] After further washing (×4) in TBST, immunoreactive proteins were detected by enhanced chemiluminescence (Amersham Biosciences, UK).
Cell Surface Biotinylation: Following treatment T84 cell monolayers were washed ×3 in ice-cold PBS and freshly prepared biotinylation buffer (1 mg/mL sulfo-NHS-biotin (Pierce) in PBS) was added basolaterally. […] Na^+/K^+-ATPase □ subunit was detected by western blot analysis as described above.

T84 cells [3] = assay: Cellular ATP levels in T84 cells (ENLITEN ATP Assay); assay type: cell-based; conditions: 5 μM, 24 hrs
Protocol: Cells were then lysed with hypotonic lysis buffer (2 mM EDTA, 100 mM Trizma base, brought to pH 7.75 with acetic acid) and frozen at −80° C. The lysate was later assayed for ATP content using the ENLITEN® ATP Assay System (Promega, Madison, Wis.).

K^+ channel conductances = assay: Basolateral K^+ conductance in T84 monolayers (Ussing chambers); assay type: cell-based; conditions: 5 μM, 24 hrs
Protocol: To measure basolateral K^+ conductance T84 cell monolayers in Ussing chambers were apically permeabilized with amphotericin B (50 μmol/L). A K^+ gradient (123.2-5.2 mmol/L) was created across the basolateral membrane by addition of a high K^+ (123.2 mmol/L) Ringers solution, in which NaCl is substituted with K^+-gluconate, to the apical reservoir. Ouabain (100 μmol/L) was added basolaterally to inhibit Na^+/K^+-ATPase pump activity. Under these conditions changes in Isc are wholly reflective of changes in basolateral K^+ conductance (IK^+).

mouse colon = assay: Ex vivo Isc measurements in muscle-stripped colon after intraperitoneal dosing of mice; conditions: 100 mg/kg intraperitoneally, 24 hrs
Protocol: Animal Studies: Male C57BL6 mice were bred and maintained in an environmentally controlled animal facility at Beaumont Hospital. Experiments were performed on 6-9 week old animals and were in compliance with Irish Department of Health and Children regulations and approved by the Beaumont Hospital Ethics Committee. […] The distal colon was removed, stripped of underlying smooth muscle, and mounted in Ussing chambers (window area=0.3 cm^2). Results were normalized and expressed as ΔIsc (μA/cm^2).
Administration of a potent and selective FXR agonist inhibits Cl^− secretory responses in mouse colon. FIG. 10.

Question: How did the “CCh-induced Cl^− secretory responses” value (T84 cells [1]; GW4064 5 μM, 24 hrs) turn out when GW4064 was run?
Answer: inhibited

Question: And the “Isc (Cl^− secretory) response to carbachol (CCh)” value (T84 cells [1])?
Answer: significantly attenuates

Question: And the “Isc (Cl^− secretory) response to carbachol (CCh)” value (T84 cells [1]; listed as GW 4064)?
Answer: significantly reduce

Question: What about the “Isc (Cl^− secretory) response to forskolin” value (T84 cells [1]) of the same substance?
Answer: significantly attenuates

Question: What about the “Isc (Cl^− secretory) response to forskolin” value (T84 cells [1]; listed as GW 4064) of the same substance?
Answer: significantly reduce

Question: And the “Time-dependence of attenuation of Cl^− secretory responses to CCh” value (T84 cells [1]; pretreated 5 μM for various periods of time, CCh 100 μM)?
Answer: attenuates Cl^− secretion in a time-dependent fashion

Question: What about the “Concentration-dependence of antisecretory actions (Cl^− secretory responses to CCh and forskolin)” value (T84 cells [1]; pretreated 0.1-10 μM for 24 hrs) of the same substance?
Answer: concentration-dependent

Question: And the “Concentration exerting toxic effects on T84 cells (transepithelial conductance)” value (T84 cells [2])?
Answer: > 10 µM

Question: And the “Cellular abundance of the catalytic α subunit of Na^+/K^+ ATPase (western blotting)” value (Na^+/K^+ ATPase pump)?
Answer: does not alter

Question: And the “Surface expression of Na^+/K^+ ATPase pump (biotinylation)” value (Na^+/K^+ ATPase pump)?
Answer: does not alter

Question: What about the “Cellular ATP levels” value (T84 cells [3]) of the same substance?
Answer: does not alter

Question: And the “K^+ channel conductances” value (K^+ channel conductances)?
Answer: did not significantly alter

Question: And the “Ex vivo Isc response of colon to CCh” value (mouse colon)?
Answer: significantly attenuated

Question: What about the “Ex vivo Isc response of colon to forskolin” value (mouse colon) of the same substance?
Answer: significantly attenuated
